Here are results for 15 compounds from publication PMC6766826, “Antiproliferative S-Trityl-L-Cysteine -Derived Compounds as SIRT2 Inhibitors: Repurposing and Solubility Enhancement” (Molecules, 2019).

Assay [1] addresses T1, SIRT2 (Homo sapiens, UniProt Q8IXJ6).
T1 sequence (Q8IXJ6 1-389): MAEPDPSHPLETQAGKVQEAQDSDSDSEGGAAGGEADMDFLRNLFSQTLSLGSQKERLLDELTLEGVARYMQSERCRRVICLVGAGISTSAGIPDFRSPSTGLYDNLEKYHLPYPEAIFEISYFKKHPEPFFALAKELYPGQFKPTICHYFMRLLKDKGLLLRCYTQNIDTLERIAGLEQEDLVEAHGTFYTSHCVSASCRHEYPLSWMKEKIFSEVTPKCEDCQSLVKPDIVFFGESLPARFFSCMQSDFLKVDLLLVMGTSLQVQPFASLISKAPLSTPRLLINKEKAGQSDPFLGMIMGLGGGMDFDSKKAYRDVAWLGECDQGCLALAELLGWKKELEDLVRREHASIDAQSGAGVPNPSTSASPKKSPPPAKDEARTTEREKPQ
Briefly: In vitro SIRT2 deacetylase inhibition, electrophoretic mobility shift assay. To be noted: for SIRT2 inhibition activity (in words): in vitro; for IC50: recombinant SIRT2, FAM-RHKK(Ac)LM peptide, 1 mM NAD, 60 min 37 °C, mean ± SD, read-out: IC50 against SIRT2. In kind it is biochemical. The text has this: The designs of the new STLC derivatives were based on TH-3 by conserving its trityl group, whereas the L-histidine moiety was replaced by L-cysteine. To obtain exhaustive structure–activity relationship (SAR) information, the amino group was reductively alkylated or acylated using different substituted aldehydes and acyl chlorides, respectively. The terminal methyl ester group was kept or converted to hydrazide (Figure 2). […] Two noncommercially available aldehydes, 4-(dimethylamino)picolinaldehyde and 4-(diethylamino)picolinaldehyde, were prepared as described previously. Thereafter, the in vitro SIRT2 inhibitory activities of these synthesized compounds were examined using electrophoretic mobility shift assays
Deacetylase activities of SIRT2 were measured with an electrophoretic mobility shift assay. […] After 60 min at 37 °C, the reaction was stopped by adding nicotinamide (final concentration 10 mM) in 50 μL stop buffer (100 mM HEPES (pH 7.5), 10 mM EDTA, 0.25% CR-3). The samples were analyzed using a LabChip EZ Reader II (PerkinElmer, Waltham, MA, USA). Percent conversion was defined as 100 × P / (P + S), where P and S are peak heights of the product and peptide substrate, respectively. The IC50 values were determined as means with standard deviation calculated from at least three independent dose–response curves using Origin software (OriginLab, Northampton, MA, USA).
For orientation: Mobility shift assays separate free from complexed probe on a gel.

Assay [2] concerns K562. Briefly: MTT assay, K562 cells. To be noted: leukemic cells. In kind it is cell-based, human. The text has this:
(§1) Next, the three active compounds (STC4, STC9, and STC11) were utilized for a cell-based assay to explore their potential antiproliferative effect against different cancer cell lines, including MCF7 (breast cancer), HeLa (cervical cancer), and different genotypes of leukemic cells (K562, MT-2, and HL-60) using an MTT assay. […] In general, STC11 cellular activity was less than STC4 and STC9. This may be explained by the lower cellular permeability due to the presence of the more polar hydrazide group.
(§2) HeLa human cervical carcinoma cell lines were incubated in Dulbecco’s modified Eagle’s medium. MCF-7 human breast cancer, leukemic (K562, HL-60, MT-2, and Jurkat), and normal blood (PBMC) (Precision Bioservices, Frederic, MD, USA) cells were incubated in RPMI1640 medium. All media (Wako, Osaka, Japan) were supplemented with 10% fetal bovine serum (Sigma-Aldrich, St. Louis, MO, USA) and 89 μg/mL streptomycin (Meiji Seika, Tokyo, Japan) at 37 °C in a humidified atmosphere of 95% air and 5% CO2. Exponentially growing cells were cultured in 24-well and 96-well plates (Iwaki brand Asahi Glass, Tokyo, Japan) at 2 × 10^4 cells/mL and 1 × 10^6 cells/mL, respectively, for 96 h before the addition of drugs (optimum cell number for cytotoxicity assays was determined in preliminary experiments). Stock solutions of compounds in concentrations between 0.01–10 mM were prepared in dimethyl sulfoxide (DMSO; Wako, Osaka, Japan) and further dilution was made with fresh culture medium. The concentration of DMSO in the final culture medium was 1%, which had no effect on cell viability.
(§3) The level of cellular MTT (Dojindo, Kumamoto, Japan) reduction was quantified as described previously […] At the end of this period, cells were stained with MTT solution and incubated for an additional 4 h at 37 °C. After the medium was removed, the formazan crystals were solubilized by addition of 100 μL DMSO to each well, and absorbance was determined using an Infinitive M1000 plate reader (Tecan, Mannedorf, Switzerland) at a wavelength of 550 nm with background subtraction at 630 nm. Every concentration was repeated in three wells, and IC50 values were calculated from MTT results and defined as the drug concentrations that reduced absorbance to 50% of the control values.

Assay [3] deals with HeLa. The experiment in a line: MTT assay, HeLa cells. In kind it is cell-based, human. To be noted: 96 h exposure, cervical cancer.
Source text: as §1, §2, §3
(In general: Formazan colour is commonly taken as a measure of viable cells.)

The subject of assay [4] is MT-2. The experiment in a line: MTT assay, MT-2 cells. The assay is classed as cell-based, human. As to conditions: leukemic cells.
Source text: as §1, §2, §3

The subject of assay [5] is MCF-7. Briefly: MTT assay, MCF-7 cells. In kind it is cell-based, human. To be noted: breast cancer.
Source text: as §1, §2, §3

Assay [6] concerns HL-60. The experiment in a line: MTT assay, HL-60 cells. In kind it is cell-based, human. As to conditions: leukemic cells.
Source text: as §1, §2, §3

Assay [7] has as its system plasmid DNA (pUC19 DNA). The experiment in a line: DNA cleavage assay with plasmid DNA. As to conditions: 1 μM concentration, 37 °C, 2 h, with and without iron (II), H2O2, ascorbic acid. As for the experimental part:
We then tested DNA cleavage as a possible molecular mechanism for cytotoxicity of the tested compounds using plasmid DNA (pUC19 DNA) witH- and without iron (II), H2O2, and ascorbic acid complex (Figure 3). The DNA cleavage reaction was carried out by incubating the reaction mixture at 37 °C for 2 h, and electrophoresis was performed. After electrophoresis, the DNA was stained with ethidium bromide, and the bands were visualized by exposure to ultraviolet radiation and recorded using an electronic camera. […] Furthermore, these compounds may activate oxygen in the cytoplasm. This may explain their high cellular cytotoxic activity owing to a dual effect combining SIRT2 inhibition and DNA cleavage.
The DNA cleavage assays were performed as described previously. Intensity of the bands was quantitated using ImageJ software (NIH, Bethesda, MD, USA).
Figure 3 The inhibitory effects of selected compounds on DNA cleavage in the presence and absence of FeSO4, H2O2, and ascorbic acid. (A) Form I (supercoil), form II (single strand break), and form III (double strand break) bands after electrophoresis. The Form I band is the lower and the Form II band is the upper portion. The pUC19 enzyme cut (by EcoR I) generates form III with mid mobility (the second lane from the left). (B) Relative intensity of form I and form II bands.

Assay [8] has as its system NCI 60 tumor cell line. Also noted: method as in doi:10.1002/ddr.430340203. As to conditions: NCI 60 tumor cell line screen; cited from earlier work.
The mark [9] stands for this setting: Homo sapiens, K562, 96 h exposure.
Where [10] appears, read: Homo sapiens, MT2, 96 h exposure.
[11] abbreviates: Homo sapiens, MCF7, 96 h exposure.
[12] abbreviates: Homo sapiens, HL-60, 96 h exposure.

Molecules are shown by their SMILES. Counter-ions that a name gives are not always drawn.

As for `COC(=O)C(N)CSC(c1ccccc1)(c1ccccc1)c1ccccc1` (stereo in doubt) [Compound 1, S-Trityl-L-Cysteine Methyl Ester Hydrochloride], in assay [1], the “SIRT2 inhibition activity (in words)” value was “inactive” and the IC50 – broadly, the concentration that gives 50% inhibition – was greater than 100 µM.

For the compound `COC(=O)[C@H](CSC(c1ccccc1)(c1ccccc1)c1ccccc1)NCc1cccc(Br)n1` [STC1, Methyl N-((6-bromopyridin-2-yl)methyl)-S-trityl-L-cysteinate], the IC50 in assay [1] was greater than 100 µM.

With `CCN(CC)c1ccc(CN[C@@H](CSC(c2ccccc2)(c2ccccc2)c2ccccc2)C(=O)OC)cc1` [STC2, Methyl N-(4-(diethylamino)benzyl)-S-trityl-L-cysteinate], the IC50 in assay [1] is greater than 100 µM.

Consider `COC(=O)[C@H](CSC(c1ccccc1)(c1ccccc1)c1ccccc1)NCc1ccc(N(C)C)cc1` [STC3, Methyl N-(4-(dimethylamino)benzyl)-S-trityl-L-cysteinate], for which the concentration for half-maximal inhibition (IC50) in assay [1] is greater than 100 µM.

`COC(=O)[C@H](CSC(c1ccccc1)(c1ccccc1)c1ccccc1)NCc1cc(N(C)C)ccn1` [STC4, Methyl N-((4-(dimethylamino)pyridin-2-yl)methyl)-S-trityl-L-cysteinate]: the IC50 came to 10.8 ± 1.9 µM in assay [1]; 2.17 ± 0.25 µM in assay [2] (setting [9]); 1.56 ± 0.17 µM in assay [3] (Homo sapiens, HeLa); 3.15 ± 0.13 µM in assay [4] (setting [10]); 3.16 ± 0.26 µM in assay [5] (setting [11]); 0.45 ± 0.05 µM in assay [6] (setting [12]). For the same compound, the “fold decrease in SIRT2 inhibition activity compared with TH-3” value in assay [1] (vs TH-3) was 10 fold.

`COC(=O)[C@H](CSC(c1ccccc1)(c1ccccc1)c1ccccc1)NCc1ccc(N(C)C)cc1Cl` [STC5, Methyl N-(2-chloro-4-(dimethylamino)benzyl)-S-trityl-L-cysteinate]: in assay [1], the IC50 was greater than 100 µM.

Consider `COC(=O)[C@H](CSC(c1ccccc1)(c1ccccc1)c1ccccc1)NCc1ccc(N(C)C)cc1OC` [STC6, Methyl N-(2-methoxy-4-(dimethylamino)benzyl)-S-trityl-L-cysteinate], for which, in assay [1], the IC50 is greater than 100 µM.

With `COC(=O)[C@H](CSC(c1ccccc1)(c1ccccc1)c1ccccc1)NCc1cnc2ccccc2c1` [STC7, Methyl N-(quinolin-3-ylmethyl)-S-trityl-L-cysteinate], the IC50 in assay [1] is greater than 100 µM.

On to `COC(=O)[C@H](CSC(c1ccccc1)(c1ccccc1)c1ccccc1)NCc1ccccn1` [STC8, Methyl N-(pyridin-2-ylmethyl)-S-trityl-L-cysteinate], for which, in assay [1], the “SIRT2 inhibition activity (in words)” value was “devoid of SIRT2 inhibition activity” and the IC50 is greater than 100 µM.

Consider `CCN(CC)c1ccnc(CN[C@@H](CSC(c2ccccc2)(c2ccccc2)c2ccccc2)C(=O)OC)c1` [STC9, Methyl N-((4-(diethylamino)pyridin-2-yl)methyl)-S-trityl-L-cysteinate], for which the IC50 is 17.2 ± 1.2 µM in assay [1]; 2.53 ± 0.31 µM in assay [2] (setting [9]); 2.72 ± 0.19 µM in assay [3] (Homo sapiens, HeLa); 2.55 ± 0.28 µM in assay [4] (setting [10]); 3.32 ± 0.41 µM in assay [5] (setting [11]); 1.19 ± 0.09 µM in assay [6] (setting [12]). Besides, the DNA cleavage effect result in assay [7] was “strongest DNA cleavage effect”.

Regarding `COC(=O)[C@H](CSC(c1ccccc1)(c1ccccc1)c1ccccc1)NC(=O)c1cc(N(C)C)ccn1` [STC10, Methyl N-(4-(dimethylamino)picolinoyl)-S-trityl-L-cysteinate], in assay [1], the “SIRT2 inhibition activity (in words)” value was “no activity” and the IC50 was greater than 100 µM.

`CN(C)c1ccnc(CN[C@H](CSC(c2ccccc2)(c2ccccc2)c2ccccc2)C(=O)NN)c1` [STC11, (S)-2-(((4-(dimethylamino)pyridin-2-yl)methyl)amino)-3-(tritylthio)propanehydrazide]: the IC50 amounted to 9.5 ± 1.2 µM in assay [1]; 15 ± 1.17 µM in assay [2] (setting [9]); 7.95 ± 0.81 µM in assay [3] (Homo sapiens, HeLa); 16.8 ± 1.04 µM in assay [4] (setting [10]); 10 ± 1.12 µM in assay [5] (setting [11]); 12.8 ± 0.95 µM in assay [6] (setting [12]).

With `N[C@@H](CSC(c1ccccc1)(c1ccccc1)c1ccccc1)C(=O)O` [STLC, S-trityl-L-cysteine], the “half maximal tumor growth inhibition concentration” value in assay [8] was 1.3 µM.

For the compound `Cc1cc(C)nc(SCC(=O)Nc2ncc(Cc3cccc4ccccc34)s2)n1` [SirReal2, reference compound], the IC50 is 13.7 ± 0.44 µM in assay [2] (96 h exposure); 10.4 ± 0.94 µM in assay [3]; 17.9 ± 1.52 µM in assay [4] (96 h exposure); 17.1 ± 2.15 µM in assay [5] (96 h exposure); 90.6 ± 8.77 µM in assay [6] (96 h exposure).

In the case of `CCN(CC)c1ccnc(CN[C@H](Cc2cn(C(c3ccccc3)(c3ccccc3)c3ccccc3)cn2)C(=O)OC)c1` [TH-3, reference compound], the IC50 in assay [1] turned out to be 1.3 ± 0.2 µM; in assay [2] (setting [9]), 0.3 ± 0.02 µM; in assay [3] (Homo sapiens, HeLa), 0.37 ± 0.04 µM; in assay [4] (setting [10]), 0.17 ± 0.02 µM; in assay [5] (setting [11]) it was 0.71 ± 0.08 µM; in assay [6] (setting [12]) it was 0.28 ± 0.04 µM.
